# Article PMC12655351, “Synthesis and Anticancer Activity Evaluation of New 5-((5-Nitrofuran-2-yl)allylidene)-2-thioxo-4-thiazolidinones” (Pharmaceuticals, 2025)
# Where “and” joins values, the source holds several entries; their conditions need not be identical. Equal entries are not always repeated. Where two headings read alike, the source gives them in different places.
# Tests used:
# Ovarian cancer [1] = assay: cells; settings: Homo sapiens
# Renal Cancer = assay: cells; settings: Homo sapiens
# BT-549 = assay: cells; settings: Homo sapiens, BT-549, 48 h, read-out: LC50, BT-549, 48 h
# NCI-H23 [2] = assay: cells; settings: Homo sapiens, NCI-H23, 48 h
# CCRF-CEM = settings: 48 h
# TK-10 [3] = tested on: TK-10
# MDA-MB-435 [4] = assay: cells; settings: Homo sapiens, MDA-MB-435, 48 h
# SNB-75 = assay: NCI-60 SRB screen; settings: SNB-75, 48 h
# T-47D = assay: cells; settings: Homo sapiens, T47D, 48 h, read-out: LC50
# A549/ATCC = assay: NCI-60 SRB screen
# 786-0 = settings: 786-0, 48 h
# NCI-H23 [5] = tested on: NCI-H23
# Breast cancer = Breast cancer subpanel
# MOLT-4 = assay: cells; settings: Homo sapiens, MOLT-4, 48 h
# UACC-257 = assay: cells; settings: Homo sapiens, UACC-257, 48 h
# LOX IMVI [6] = settings: 48 h
# Ovarian cancer [7] = settings: Ovarian cancer subpanel
# HS 578T = settings: 48 h
# NCI-H266 = assay: NCI-60 SRB screen
# K-562 = assay: cells; settings: Homo sapiens, K562, 48 h
# CNS cancer = CNS cancer subpanel
# CAKI-1 [8] = tested on: CAKI-1
# U251 = assay: NCI-60 SRB screen
# IGROV1 = assay: NCI-60 SRB screen
# LOX IMVI [9] = assay: cells; settings: Homo sapiens, 48 h
# SN12C = assay: cells; settings: Homo sapiens, 48 h
# Colon cancer = assay: NCI-60 SRB screen, subpanel
# CAKI-1 [10] = assay: cells; settings: Homo sapiens, CAKI-1, 48 h
# HT29 = assay: cells; settings: Homo sapiens, HT-29, 48 h, HT29, 48 h
# HCT-116 = assay: cells; settings: Homo sapiens, HCT-116, 48 h
# SR = settings: 48 h
# TK-10 [11] = assay: cells; settings: Homo sapiens, TK-10, 48 h
# M14 = assay: NCI-60 SRB screen; settings: Homo sapiens, M14, 48 h, read-out: LC50, M14, 48 h
# EKVX = assay: NCI-60 SRB screen; settings: 48 h
# SF-295 = assay: NCI-60 SRB screen; settings: SF-295, 48 h
# MDA-MB-435 [12] = tested on: MDA-MB-435
# Melanoma = assay: cells; settings: Homo sapiens
# SK-MEL-2 = assay: NCI-60 SRB screen; settings: SK-MEL-2, 48 h
smiles,measurement,setting,value
"O=C(O)CCCCCN1C(=O)/C(=C/C=C/c2ccc([N+](=O)[O-])o2)SC1=S [14b, 6-((Z)-5-((E)-3-(5-nitrofuran-2-yl)allylidene)-4-oxo-2-thioxothiazolidin-3-yl)hexanoic acid]",GI50,Ovarian cancer [1]; read-out: MG_MID GI50,1110 nM
same,CC50,Ovarian cancer [1]; read-out: MG_MID LC50,15600 nM
same,GI50,Renal Cancer; read-out: MG_MID GI50,1980 nM
same,CC50,Renal Cancer; read-out: MG_MID LC50,10400 nM
same,CC50,BT-549,5070 nM
same,GI50,NCI-H23 [2],1530 nM
same,CC50,"NCI-H23 [2]; read-out: LC50, NCI-H23, 48 h",6290 nM
same,GI50,CCRF-CEM,270 nM
same,TGI,CCRF-CEM,570 nM and 960 nM
same,growth GP,"TK-10 [3]; TK-10, 10 μM, 48 h",-95.04%
same,GI50,"TK-10 [3]; TK-10, 48 h",1850 nM
same,TGI,"TK-10 [3]; TK-10, 48 h",3320 nM and 3470 nM
same,CC50,"TK-10 [3]; human, 48 h",6330 nM
same,GI50,MDA-MB-435 [4],420 nM
same,CC50,"MDA-MB-435 [4]; read-out: LC50, MDA-MB-435, 48 h",4470 nM
same,CC50,"SNB-75; Homo sapiens, read-out: LC50, SNB-75, 48 h",5680 nM
same,TGI,SNB-75,2610 nM and 1430 nM
same,CC50,T-47D,> 100000 nM
same,GI50,A549/ATCC; 48 h,2380 nM
same,GI50,"A549/ATCC; Homo sapiens, A549, 48 h",1620 nM
same,GI50,786-0,320 nM
same,TGI,786-0,2060 nM and 1230 nM
same,GI50,"NCI-H23 [5]; NCI-H23, 48 h",1230 nM
same,TGI,"NCI-H23 [5]; NCI-H23, 48 h",3100 nM and 2690 nM
same,CC50,"NCI-H23 [5]; human, 48 h",5890 nM
same,MG_MID TGI,Breast cancer,2610 nM
same,GI50,MOLT-4,370 nM
same,GI50,UACC-257,1600 nM
same,CC50,"UACC-257; read-out: LC50, UACC-257, 48 h",6270 nM
same,growth GP,"LOX IMVI [6]; LOX IMVI, 10 μM",-95.58%
same,GI50,LOX IMVI [6]; LOX IMVI,190 nM
same,TGI,LOX IMVI [6]; LOX IMVI,420 nM and 390 nM
same,CC50,LOX IMVI [6]; human,780 nM
same,MG_MID TGI,Ovarian cancer [7],2920 nM
same,GI50,HS 578T,790 nM
same,TGI,HS 578T,6440 nM and 7760 nM
same,GI50,"NCI-H266; Homo sapiens, 48 h, NCI-H266, 48 h",2210 nM
same,CC50,"NCI-H266; Homo sapiens, 48 h, read-out: LC50, NCI-H266, 48 h",90200 nM
same,GI50,"NCI-H266; NCI-H266, 48 h",1960 nM
same,TGI,"NCI-H266; NCI-H266, 48 h",7060 nM and 7950 nM
same,GI50,"K-562; K-562, 48 h",200 nM
same,CC50,K-562; read-out: LC50,> 100000 nM
same,MG_MID TGI,CNS cancer,2620 nM
same,growth GP,"CAKI-1 [8]; CAKI-1, 10 μM, 48 h",-96.43%
same,GI50,"CAKI-1 [8]; CAKI-1, 48 h",1400 nM
same,TGI,"CAKI-1 [8]; CAKI-1, 48 h",2090 nM and 2720 nM
same,GI50,"U251; Homo sapiens, U-251, 48 h, U251, 48 h",570 nM
same,CC50,"U251; Homo sapiens, U-251, 48 h, read-out: LC50, U251, 48 h",4860 nM
same,GI50,"U251; U251, 48 h",340 nM
same,TGI,"U251; U251, 48 h",1920 nM and 1220 nM
same,CC50,"IGROV1; Homo sapiens, IGROV-1, 48 h, read-out: LC50, IGROV1, 48 h",5010 nM
same,CC50,"IGROV1; read-out: LC50, IGROV1, 48 h",2670 nM
same,GI50,LOX IMVI [9],200 nM
same,CC50,"LOX IMVI [9]; read-out: LC50, LOX IMVI, 48 h",880 nM
same,GI50,SN12C,360 nM
same,CC50,"SN12C; read-out: LC50, SN12C, 48 h",3890 nM
same,MG_MID TGI,Colon cancer; Colon cancer subpanel,1920 nM
same,GI50,"Colon cancer; Homo sapiens, read-out: MG_MID GI50",870 nM
same,CC50,"Colon cancer; Homo sapiens, read-out: MG_MID LC50",11700 nM
same,GI50,CAKI-1 [10],830 nM
same,GI50,HT29,1190 nM
same,GI50,HCT-116,310 nM
same,TGI,SR,960 nM
same,GI50,TK-10 [11],1880 nM
same,CC50,"TK-10 [11]; read-out: LC50, TK-10, 48 h",5840 nM
same,CC50,M14,5560 nM
same,GI50,EKVX,1680 nM
same,TGI,EKVX,3480 nM and 3550 nM
same,GI50,EKVX; Homo sapiens,1740 nM
same,CC50,"EKVX; Homo sapiens, read-out: LC50, EKVX, 48 h",6940 nM
same,GI50,SF-295; Homo sapiens,1910 nM
same,CC50,"SF-295; Homo sapiens, read-out: LC50, SF-295, 48 h",8720 nM
same,GI50,SF-295,1700 nM
same,TGI,SF-295,4080 nM and 3360 nM
same,GI50,"MDA-MB-435 [12]; MDA-MB-435, 48 h",280 nM
same,CC50,"MDA-MB-435 [12]; human, 48 h",2740 nM
same,GI50,Melanoma; read-out: MG_MID GI50,760 nM
same,CC50,Melanoma; read-out: MG_MID LC50,4400 nM
same,CC50,"SK-MEL-2; Homo sapiens, read-out: LC50, SK-MEL-2, 48 h",6010 nM
same,TGI,SK-MEL-2,2950 nM and 2330 nM
